These results are taken from ChEMBL document CHEMBL1123607, “Synthesis of potential anticancer agents: imidazo[4,5-c]pyridines and imidazo[4,5-b]pyridines” (J Med Chem, 1987).

Usually ILS stands for the gain in survival time of treated over control animals, in per cent. Read a high ILS as a large benefit in survival. In general, IC50 refers to the concentration at which inhibition is half-maximal. A higher IC50 goes with lower potency.

In assay [1] the test system is L1210. Put plainly: Percent increase in life span at 40 mg/kg on a single dose schedule against L1210 leukemia. Format: functional. Particulars: Mus musculus.
Assay [2] deals with L1210. Briefly: Inhibition against the proliferation of L1210 leukemia. Type of assay: functional, cell-based. Particulars: Mus musculus.
Assay [3] deals with L1210. Put plainly: Mitotic index (MI). Type of assay: functional, Mus musculus.
The nature of assay [4]: Cytotoxicity activity against the KB cell culture at less than 10 uM. Particulars: Homo sapiens, read-out: ED50 (the source's name). Format: functional.

In the assay on L1210 [1], `CCOC(=O)Nc1cc(NC(c2ccccc2)c2ccccc2)c2[nH]cnc2n1` showed an ILS at 40 mg/kg of 59%. 0.37 µM corresponded to half-maximal inhibition in the assay on L1210 [2] (IC50). In addition, the MI with L1210 [3] worked out at 1.15 µM.

As to `CCOC(=O)Nc1cc(Nc2ccccc2)c2[nH]cnc2n1`, the EC50 in assay [4] is 9.5 µM.
